From ChEMBL document CHEMBL1151000, “Novel synthetic rotenoids with blocked B/C ring systems” (Bioorg Med Chem Lett, 1992)

Columns and labels:
[1] = The compound was evaluated for the inhibition of NADH dehydrogenase
[2] = The compound was evaluated for the insecticidal activity against housefly with cytochrome P450 oxidase inhibitor piperonyl butoxide; assay type: ADME; conditions: musca domestica
[3] = The compound was evaluated for the insecticidal activity against housefly without cytochrome P450 oxidase inhibitor piperonyl butoxide; conditions: musca domestica

| Structure (SMILES) | IC50 [1] | LD50 [2] | LD50 [3] |
| --- | --- | --- | --- |
| COc1cc2c(cc1OC)[C@]1(C)C(=O)c3ccc4c(c3O[C@@H]1CO2)C[C@H](C(C)C)O4 | 16 nM | – | – |
| C=C(C)[C@H]1Cc2c(ccc3c2O[C@@H]2COc4cc(OC)c(OC)cc4[C@@]2(C)C3=O)O1.C=C(C)[C@H]1Cc2c(ccc3c2O[C@H]2COc4cc(OC)c(OC)cc4[C@]2(C)C3=O)O1 | 360 nM | 4 ug fly-1 | > 10 ug fly-1 |
| C=C(C)[C@H]1Cc2c(ccc3c2O[C@@H]2COc4cc(OC)c(OC)cc4[C@]2(C)C3=O)O1 | 17 nM | 0.2 ug fly-1 | 2 ug fly-1 |
| C=C(C)[C@H]1Cc2c(ccc3c2OC24COc5cc(OC)c(OC)cc5C2(C4)C3=O)O1 (some centres not stated) | 80 nM | 10 ug fly-1 | – |
| C=C(C)[C@H]1Cc2c(ccc3c2O[C@@H]2COc4cc(OC)c(OC)cc4[C@@H]2C3=O)O1 [ROTENONE] | 3.5 nM | 5 ug fly-1 | 10 ug fly-1 |
